Source: paper PMC5901755 (ACS chemical neuroscience, 2016)

Target: T1, TREK-1 (Homo sapiens, UniProt O95069)
T1 sequence (O95069 1-426): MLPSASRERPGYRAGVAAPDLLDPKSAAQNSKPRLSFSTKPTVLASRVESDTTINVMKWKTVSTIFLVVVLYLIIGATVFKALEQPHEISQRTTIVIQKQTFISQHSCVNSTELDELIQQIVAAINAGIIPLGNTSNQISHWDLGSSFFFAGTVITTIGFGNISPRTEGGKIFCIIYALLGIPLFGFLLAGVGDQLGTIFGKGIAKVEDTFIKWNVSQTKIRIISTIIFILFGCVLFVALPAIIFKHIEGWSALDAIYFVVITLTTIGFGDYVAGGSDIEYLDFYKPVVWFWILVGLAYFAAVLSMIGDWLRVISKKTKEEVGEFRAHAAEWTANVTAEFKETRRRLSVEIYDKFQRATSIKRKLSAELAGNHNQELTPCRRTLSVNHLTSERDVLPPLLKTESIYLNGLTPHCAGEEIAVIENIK
Assay: Tl+ flux fluorescence
Format: cell-based
Settings: inhibitor; 1.8 µM, 10 min pretreatment; pH 7.3

CCCCC[C@H](O)/C=C/[C@H]1CC[C@H](O)[C@@H]1C/C=C\CCCC(=O)O [11-deoxy prostaglandin F2α]
Tl+ flux fluorescence (Thallos), T-REx-HEK293: we observed that 11-deoxy prostaglandin F2α inhibited TREK-1 channels
